In assay [1] the test system is Raji cells. Nature of the assay: Tumor growth inhibition in mice transplanted with Raji cells. The assay is classed as in vivo, NOD/ShiJic-scidJcl mice. The conditions noted are these: oral 50 mg/kg daily, day 21, vs control group (P<0.01). How it is done: Raji cells were transplanted into NOD/ShiJic-scidJcl mice, and the tumor growth inhibitory effect of oral administration of M9 and M14 was examined. As a result, a remarkable tumor growth inhibitory effect was observed.
Raji cells were transplanted into NOD/ShiJic-scidJcl mice, and the mice were orally administered M9 at 50 mg/kg and M14 at 50 mg/kg daily on day 0 when the average tumor volume exceeded 100 mm^3, and the tumor volume was measured on day 21.
The group that was only transplanted with Raji cells is called the control group, the group that was treated with M9 is called the M9-treated group, and the group that was treated with M14 is called the M14-treated group. Each group consisted of 5 animals.
(§1) Referring to the figure, the horizontal axis indicates drug treatment, and the vertical axis indicates tumor volume (percent of the control group).
White bars indicate the control group (labeled “Control”). Black bars indicate the M9 treatment group (labeled “50 mg/kg M9”) and vertical bars indicate the M14 treatment group (labeled “50 mg/kg M14”).

Assay [2] relates to L363 cells. Nature of the assay: Tumor growth inhibition in mice transplanted with L363 cells. The note with it: oral 100 mg/kg daily, day 24, vs control group (P<0.01). The format is in vivo, NOD/ShiJic-scidJcl mice. As to the method:
L363 cells were transplanted into NOD/ShiJic-scidJcl mice, and the tumor growth inhibitory effect of oral administration of M9 was examined. As a result, a remarkable tumor growth inhibitory effect was observed.
L363 cells were transplanted into NOD/ShiJic-scidJcl mice, and M9 was orally administered to the mice at 100 mg/kg daily on day 0 when the average tumor volume exceeded 100 mm^3, and tumor volume was measured on day 24.
The group that was only implanted with L363 cells is called the target group and the group that was treated with M9 is called the M9-treated group. Each group consisted of 5 animals.
as §1
White bars indicate the control group (labeled “Control”). Black bars indicate the M9 treatment group (labeled “100 mg/kg M9”). Those with significant differences (P<0.01) from the control group are marked with an asterisk (*).

The subject of assay [3] is IL-6. Nature of the assay: IL-6 secretion in KMS-28BM cells, Luminex. The format is cell-based, human. The note with it: KMS-28BM culture supernatant after 10 days; compounds at 0.005-50 μM; control 143 μg/mL. How it is done: The inhibitory effect of each compound on IL-6 secretion was examined using Luminex in KMS-28BM cells.
As a control, compounds untreated KMS-28BM cells were seeded in 75 cm^2 flasks and incubated for 10 days at 37° C. and 5% CO2. KMS-28BM cells were seeded into 75 cm^2 flasks and pre-cultured for 4 h. After incubation, KMS-28BM cells were treated with […], 0.05 μM M9, 0.1 μM yk-7, 0.1 μM yk-8-3, 50 μM yk-8-1, 0.5 μM M11, […], 0.005 μM M14, 0.005 μM M15, 0.005 μM M16, 0.5 μM M18, and 0.5 μM M19 at final concentrations, and incubated for 10 days at 37° C. and 5% CO2. After 10 days of incubation, the culture supernatant was collected and the secretion of IL-6, a bone destruction-related factor and a growth-promoting factor, was measured by Luminex. The human Magnetic Luminex Assay (R&D) was used for this measurement.

Assay [4] has as its system MIP-1α. Nature of the assay: MIP-1α secretion in L363 cells, Luminex. The conditions noted are these: L363 culture supernatant after 10 days; compounds at 0.005-50 μM; control 266 μg/mL. The assay is classed as cell-based, human. As to the method:
The inhibitory effect of each compound on MIP-1α secretion was examined using Luminex in L363 cells.
As a control, compounds untreated L363 cells were seeded in 75 cm^2 flasks and incubated for 10 days at 37° C. and 5% CO2. L363 cells were seeded into 75 cm^2 flasks and pre-cultured for 4 h. After incubation, L363 cells were treated with 0.1 μM M7, 0.05 μM M9, 0.1 μM yk-7, 0.1 μM yk-8-3, 50 μM yk-8-1, 0.1 μM M11, 0.01 μM M12, 0.005 μM M14, 0.005 μM M15, 0.005 μM M16, 1 μM M18, and 1 μM M19 at final concentrations, and incubated for 10 days at 37° C. and 5% CO2. After 10 days of incubation, the culture supernatant was collected and the secretion of MIP-la, a bone destruction-related factor and a growth-promoting factor, was measured by Luminex. The human Magnetic Luminex Assay (R&D) was used for this measurement.

`CCC(=O)OC[C@H]1O[C@@H](c2c(O)cc3oc4cc(O)c(O)cc4c(=O)c3c2O)[C@H](OC(=O)CC)[C@@H](OC(=O)CC)[C@@H]1OC(=O)CC` [Compound M9, 2′,3′,4′,6′-tetra-O-propionylmangiferin]: the “tumor growth (tumor volume, percent of the control group)” value in assay [1] and in assay [2] was “significant inhibition of tumor growth” throughout. In turn, `CCCC(=O)OC[C@H]1O[C@@H](c2c(OC(=O)CCC)cc3oc4cc(OC(=O)CCC)c(OC(=O)CCC)cc4c(=O)c3c2OC(=O)CCC)[C@H](OC(=O)CCC)[C@@H](OC(=O)CCC)[C@@H]1OC(=O)CCC` [Compound M11, 1,3,2′,3′,4′,6,6′,7-octa-O-butyrylmangiferin] showed an IL-6 secretion in assay [3] of 12 µg/mL. In assay [4], this compound registered an MIP-1α secretion of 6 µg/mL. `CCCC(=O)OC[C@H]1O[C@@H](c2c(O)cc3oc4cc(O)c(O)cc4c(=O)c3c2O)[C@H](OC(=O)CCC)[C@@H](OC(=O)CCC)[C@@H]1OC(=O)CCC` [Compound M14, 2′,3′,4′,6′-tetra-O-butyrylmangiferin]: the “tumor growth (tumor volume, percent of the control group)” value in assay [1] is recorded as “significant inhibition of tumor growth”. `CCCCC(=O)OC[C@H]1O[C@@H](c2c(OC(=O)CCCC)cc3oc4cc(OC(=O)CCCC)c(OC(=O)CCCC)cc4c(=O)c3c2OC(=O)CCCC)[C@H](OC(=O)CCCC)[C@@H](OC(=O)CCCC)[C@@H]1OC(=O)CCCC` [yk-8-1, 1,3,2′,3′,4′,6,6′,7-octa-O-valerylmangiferin] yielded an IL-6 secretion in assay [3] of 84 µg/mL. This compound displayed an MIP-1α secretion in assay [4] of 179 µg/mL.

The values are drawn from patent publication US20260200903A1, “PHARMACEUTICAL COMPOSITION FOR AMELIORATING MALIGNANT DISEASES” (KINKI UNIVERSITY, priority 2020, published 2026).
